According to ChEMBL document CHEMBL4507285, “Data for DCP probe MRL-SYKi” (2021):
The source made the active and inactive calls. The calls are words filed in the database; no cut-off is given here.

How the values were obtained:
[1] = molecular target: Serine/threonine-protein kinase 33 (Homo sapiens) (UniProt Q9BYT3); conditions: Compound concentration 100.0 nM
[2] = GPCRScan assay: inhibition of GABA/PBR; design: species or system Rattus norvegicus; radioligand conc. used [nm] 0.3 – 2.0, parental cells brain tissue
[3] = molecular target: Serine/threonine-protein kinase PRP4 homolog (Homo sapiens) (UniProt Q13523); conditions: Compound concentration 100.0 nM
Sequence of Serine/threonine-protein kinase PRP4 homolog (Homo sapiens) (Q13523 whole entry): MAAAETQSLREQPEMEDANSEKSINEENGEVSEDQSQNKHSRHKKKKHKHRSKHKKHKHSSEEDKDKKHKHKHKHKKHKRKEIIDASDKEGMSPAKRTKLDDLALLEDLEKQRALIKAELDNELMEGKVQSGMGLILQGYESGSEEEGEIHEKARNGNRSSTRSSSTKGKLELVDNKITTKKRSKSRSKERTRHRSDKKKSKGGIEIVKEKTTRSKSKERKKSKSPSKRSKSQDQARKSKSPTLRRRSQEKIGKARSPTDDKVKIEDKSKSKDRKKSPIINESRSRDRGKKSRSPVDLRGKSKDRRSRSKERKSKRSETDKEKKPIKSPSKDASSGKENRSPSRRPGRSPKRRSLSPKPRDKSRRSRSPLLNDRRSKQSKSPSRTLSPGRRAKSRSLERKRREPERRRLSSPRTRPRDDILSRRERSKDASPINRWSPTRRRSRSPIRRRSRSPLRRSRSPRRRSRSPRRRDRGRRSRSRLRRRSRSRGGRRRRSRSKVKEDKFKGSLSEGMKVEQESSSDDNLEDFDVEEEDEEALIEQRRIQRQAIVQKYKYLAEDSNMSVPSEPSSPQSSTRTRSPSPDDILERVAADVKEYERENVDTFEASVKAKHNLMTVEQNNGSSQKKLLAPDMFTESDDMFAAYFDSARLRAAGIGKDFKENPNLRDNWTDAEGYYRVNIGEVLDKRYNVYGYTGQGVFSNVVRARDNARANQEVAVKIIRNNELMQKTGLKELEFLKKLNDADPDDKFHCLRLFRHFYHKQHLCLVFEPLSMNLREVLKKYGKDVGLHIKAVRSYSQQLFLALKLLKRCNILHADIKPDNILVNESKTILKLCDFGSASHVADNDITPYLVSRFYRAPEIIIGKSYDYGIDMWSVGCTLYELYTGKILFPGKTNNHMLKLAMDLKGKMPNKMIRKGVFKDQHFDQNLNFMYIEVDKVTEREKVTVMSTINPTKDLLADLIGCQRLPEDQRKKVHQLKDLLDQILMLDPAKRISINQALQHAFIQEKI

[4] = molecular target: Tyrosine-protein kinase Srms (Homo sapiens) (UniProt Q9H3Y6); conditions: Compound concentration 100.0 nM
LIM domain kinase 1 = LIM domain kinase 1 (Homo sapiens, UniProt P53667); experiment: Inhibition of LIMK1 at compound concentration of 10.0 uM using the ScanMax (DiscoverX)
[5] = molecular target: Mitogen-activated protein kinase kinase kinase 14 (Homo sapiens) (UniProt Q99558); conditions: Compound concentration 100.0 nM
Sequence of Mitogen-activated protein kinase kinase kinase 14 (Homo sapiens) (Q99558 whole entry, looked up): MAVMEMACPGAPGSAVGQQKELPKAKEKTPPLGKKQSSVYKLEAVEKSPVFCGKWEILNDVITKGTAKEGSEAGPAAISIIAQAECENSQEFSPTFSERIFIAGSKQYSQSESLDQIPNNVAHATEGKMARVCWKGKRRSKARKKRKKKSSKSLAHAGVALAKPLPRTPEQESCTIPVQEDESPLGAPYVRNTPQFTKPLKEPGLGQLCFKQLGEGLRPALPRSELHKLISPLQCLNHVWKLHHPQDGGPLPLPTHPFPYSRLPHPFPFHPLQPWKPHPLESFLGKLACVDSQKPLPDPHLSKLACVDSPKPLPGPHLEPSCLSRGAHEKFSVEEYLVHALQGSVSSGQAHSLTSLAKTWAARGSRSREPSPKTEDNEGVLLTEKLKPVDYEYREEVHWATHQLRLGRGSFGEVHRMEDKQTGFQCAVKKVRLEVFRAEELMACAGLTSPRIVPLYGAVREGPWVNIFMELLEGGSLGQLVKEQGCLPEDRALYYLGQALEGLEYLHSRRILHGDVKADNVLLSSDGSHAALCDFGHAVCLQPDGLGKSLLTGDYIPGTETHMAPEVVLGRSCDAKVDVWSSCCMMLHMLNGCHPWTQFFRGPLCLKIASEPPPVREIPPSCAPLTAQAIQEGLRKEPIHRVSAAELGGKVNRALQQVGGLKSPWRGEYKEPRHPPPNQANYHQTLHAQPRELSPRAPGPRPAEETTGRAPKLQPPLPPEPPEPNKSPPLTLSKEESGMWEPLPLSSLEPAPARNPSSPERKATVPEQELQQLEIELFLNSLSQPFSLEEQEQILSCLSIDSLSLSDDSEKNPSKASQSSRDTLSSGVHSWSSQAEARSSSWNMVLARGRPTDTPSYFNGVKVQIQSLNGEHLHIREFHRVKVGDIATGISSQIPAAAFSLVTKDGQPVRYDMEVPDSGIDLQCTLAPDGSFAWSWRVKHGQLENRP

[6] = molecular target: SRSF protein kinase 3 (Homo sapiens) (UniProt Q9UPE1); conditions: Compound concentration 100.0 nM
Sequence of SRSF protein kinase 3 (Homo sapiens) (Q9UPE1 whole entry): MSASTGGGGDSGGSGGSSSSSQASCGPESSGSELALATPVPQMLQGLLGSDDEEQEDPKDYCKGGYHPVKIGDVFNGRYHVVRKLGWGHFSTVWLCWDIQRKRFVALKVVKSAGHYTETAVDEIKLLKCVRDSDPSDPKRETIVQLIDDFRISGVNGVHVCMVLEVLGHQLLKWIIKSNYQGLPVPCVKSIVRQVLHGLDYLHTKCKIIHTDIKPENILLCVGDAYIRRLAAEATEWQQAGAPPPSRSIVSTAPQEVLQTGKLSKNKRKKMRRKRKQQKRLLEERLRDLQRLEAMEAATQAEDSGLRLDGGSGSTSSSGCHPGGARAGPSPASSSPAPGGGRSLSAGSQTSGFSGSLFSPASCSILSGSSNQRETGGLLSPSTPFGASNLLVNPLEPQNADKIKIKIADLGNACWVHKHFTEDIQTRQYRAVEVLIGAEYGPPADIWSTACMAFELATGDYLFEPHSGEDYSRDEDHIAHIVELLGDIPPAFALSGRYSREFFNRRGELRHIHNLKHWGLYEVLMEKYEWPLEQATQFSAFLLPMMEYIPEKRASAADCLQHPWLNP

[7] = molecular target: Muscarinic acetylcholine receptor M1 (Homo sapiens) (UniProt P11229); conditions: Compound concentration 10.0 uM
[8] = molecular target: Bone morphogenetic protein receptor type-1A (Homo sapiens) (UniProt P36894); conditions: Compound concentration 100.0 nM
[9] = molecular target: 5-hydroxytryptamine receptor 2B (Homo sapiens, UniProt P41595); experiment: GPCRScan assay: inhibition of 5-HT2B; design: radioligand conc. used [nm] 1.0 – 2.0, parental cells stable HEK
[10] = molecular target: Kappa-type opioid receptor (Homo sapiens) (UniProt P41145); conditions: Compound concentration 10.0 uM
[11] = molecular target: Phosphatidylinositol 5-phosphate 4-kinase type-2 beta (Homo sapiens) (UniProt P78356); conditions: Compound concentration 100.0 nM
[12] = molecular target: Serine/threonine-protein kinase RIO3 (Homo sapiens) (UniProt O14730); conditions: Compound concentration 100.0 nM
[13] = system: Receptor-type tyrosine-protein kinase FLT3 (Homo sapiens), P36888 [D835V]; conditions: Compound concentration 100.0 nM
[14] = system: Proto-oncogene tyrosine-protein kinase receptor Ret (Homo sapiens), P07949 [M918T]; conditions: Compound concentration 100.0 nM
Sequence of Proto-oncogene tyrosine-protein kinase receptor Ret (Homo sapiens), P07949 [M918T] (P07949 whole entry M918T): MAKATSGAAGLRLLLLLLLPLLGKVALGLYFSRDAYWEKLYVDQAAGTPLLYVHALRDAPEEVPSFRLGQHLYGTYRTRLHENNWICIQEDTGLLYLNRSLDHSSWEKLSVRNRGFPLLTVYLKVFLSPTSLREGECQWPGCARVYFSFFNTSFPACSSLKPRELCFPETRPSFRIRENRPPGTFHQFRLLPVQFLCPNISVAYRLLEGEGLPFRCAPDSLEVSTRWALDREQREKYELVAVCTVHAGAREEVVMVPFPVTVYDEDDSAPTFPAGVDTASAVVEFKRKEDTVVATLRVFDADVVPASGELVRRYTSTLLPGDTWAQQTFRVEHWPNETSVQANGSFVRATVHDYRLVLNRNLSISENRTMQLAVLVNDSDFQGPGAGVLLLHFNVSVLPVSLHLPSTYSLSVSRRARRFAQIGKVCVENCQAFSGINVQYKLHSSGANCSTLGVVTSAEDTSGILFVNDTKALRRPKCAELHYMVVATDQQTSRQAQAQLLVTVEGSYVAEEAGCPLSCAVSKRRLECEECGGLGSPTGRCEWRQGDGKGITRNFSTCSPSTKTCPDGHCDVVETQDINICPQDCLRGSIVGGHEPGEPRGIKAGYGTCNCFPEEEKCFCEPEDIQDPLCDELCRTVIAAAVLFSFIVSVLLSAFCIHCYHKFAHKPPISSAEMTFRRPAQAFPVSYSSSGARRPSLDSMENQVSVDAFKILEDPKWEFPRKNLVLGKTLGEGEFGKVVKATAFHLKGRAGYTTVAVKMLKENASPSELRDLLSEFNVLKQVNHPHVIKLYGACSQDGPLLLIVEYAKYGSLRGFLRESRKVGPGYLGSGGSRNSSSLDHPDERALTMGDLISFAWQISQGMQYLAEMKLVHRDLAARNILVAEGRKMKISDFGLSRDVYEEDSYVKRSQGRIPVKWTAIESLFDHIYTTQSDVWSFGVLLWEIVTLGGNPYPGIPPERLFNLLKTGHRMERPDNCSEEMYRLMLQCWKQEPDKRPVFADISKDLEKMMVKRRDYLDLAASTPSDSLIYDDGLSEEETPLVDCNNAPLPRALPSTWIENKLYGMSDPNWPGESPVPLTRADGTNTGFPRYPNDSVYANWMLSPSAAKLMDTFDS

[15] = molecular target: Interleukin-1 receptor-associated kinase 4 (Homo sapiens) (UniProt Q9NWZ3); conditions: Compound concentration 100.0 nM
[16] = molecular target: Transient receptor potential cation channel subfamily M member 6 (Homo sapiens) (UniProt Q9BX84); conditions: Compound concentration 100.0 nM
[17] = molecular target: Mitogen-activated protein kinase kinase kinase 2 (Homo sapiens) (UniProt Q9Y2U5); conditions: Compound concentration 100.0 nM
Sequence of Mitogen-activated protein kinase kinase kinase 2 (Homo sapiens) (Q9Y2U5 whole entry): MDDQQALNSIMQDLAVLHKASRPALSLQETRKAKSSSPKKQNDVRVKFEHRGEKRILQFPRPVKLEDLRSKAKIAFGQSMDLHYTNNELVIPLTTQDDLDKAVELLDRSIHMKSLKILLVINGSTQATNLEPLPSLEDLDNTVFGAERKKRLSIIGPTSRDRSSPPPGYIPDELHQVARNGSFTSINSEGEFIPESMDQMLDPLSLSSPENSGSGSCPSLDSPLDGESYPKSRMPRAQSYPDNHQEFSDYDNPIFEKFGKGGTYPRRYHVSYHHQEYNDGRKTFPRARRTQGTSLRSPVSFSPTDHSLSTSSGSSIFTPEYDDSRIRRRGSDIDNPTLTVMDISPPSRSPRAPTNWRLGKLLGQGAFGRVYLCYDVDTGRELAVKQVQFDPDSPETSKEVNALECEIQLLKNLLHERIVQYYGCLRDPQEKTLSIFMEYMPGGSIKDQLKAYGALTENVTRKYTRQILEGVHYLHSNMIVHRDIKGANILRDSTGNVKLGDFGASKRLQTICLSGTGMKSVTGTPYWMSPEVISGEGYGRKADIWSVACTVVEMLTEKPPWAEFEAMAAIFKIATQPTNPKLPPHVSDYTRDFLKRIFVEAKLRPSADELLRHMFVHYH

[18] = molecular target: 5-hydroxytryptamine receptor 6 (Homo sapiens) (UniProt P50406); conditions: Compound concentration 10.0 uM
[19] = molecular target: Sodium-dependent noradrenaline transporter (Homo sapiens, UniProt P23975); experiment: GPCRScan assay: inhibition of NET; design: radioligand conc. used [nm] 1.3 – 5.0, parental cells stable HEK
[20] = molecular target: Tyrosine-protein kinase ZAP-70 (Homo sapiens, UniProt P43403); experiment: Invitrogen kinase assay (ZAP70)
[21] = molecular target: Tyrosine-protein kinase Fyn (Homo sapiens, UniProt P06241); experiment: Invitrogen kinase assay (FYN)
[22] = molecular target: NT-3 growth factor receptor (Homo sapiens, UniProt Q16288); experiment: Invitrogen kinase assay (NTRK3)
[23] = molecular target: Tyrosine-protein kinase Fgr (Homo sapiens, UniProt P09769); experiment: Invitrogen kinase assay (FGR)
[24] = molecular target: 5-hydroxytryptamine receptor 1E (Homo sapiens) (UniProt P28566); conditions: Compound concentration 10.0 uM
[25] = molecular target: Proto-oncogene tyrosine-protein kinase Src (Homo sapiens, UniProt P12931); experiment: Invitrogen kinase assay (SRC)
[26] = molecular target: Tyrosine-protein kinase Fer (Homo sapiens, UniProt P16591); experiment: Invitrogen kinase assay (FER)
[27] = molecular target: Tyrosine-protein kinase SYK (Homo sapiens, UniProt P43405); experiment: Inhibition of SYK at compound concentration of 10.0 uM using the ScanMax (DiscoverX)
[28] = molecular target: High affinity nerve growth factor receptor (Homo sapiens, UniProt P04629); experiment: Invitrogen kinase assay (NTRK1)
[29] = molecular target: Tyrosine-protein kinase JAK2 (Homo sapiens, UniProt O60674); experiment: Invitrogen kinase assay (JAK2)

Sequence of Serine/threonine-protein kinase 33 (Homo sapiens) (Q9BYT3 whole entry, looked up): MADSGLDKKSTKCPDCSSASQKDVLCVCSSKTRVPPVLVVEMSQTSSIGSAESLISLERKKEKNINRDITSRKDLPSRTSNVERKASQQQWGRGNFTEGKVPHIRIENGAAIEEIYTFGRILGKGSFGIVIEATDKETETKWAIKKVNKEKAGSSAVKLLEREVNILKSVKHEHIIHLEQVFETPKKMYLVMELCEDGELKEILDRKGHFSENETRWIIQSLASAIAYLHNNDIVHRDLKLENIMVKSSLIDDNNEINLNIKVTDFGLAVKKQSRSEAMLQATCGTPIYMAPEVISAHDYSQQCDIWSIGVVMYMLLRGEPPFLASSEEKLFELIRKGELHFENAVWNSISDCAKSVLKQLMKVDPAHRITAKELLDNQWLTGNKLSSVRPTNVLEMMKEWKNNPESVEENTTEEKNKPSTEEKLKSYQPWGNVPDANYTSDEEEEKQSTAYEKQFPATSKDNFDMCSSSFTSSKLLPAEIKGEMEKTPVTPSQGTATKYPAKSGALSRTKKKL

| SMILES | residual activity [1] | residual activity [3] | residual activity [4] | residual activity [5] | residual activity [6] | residual activity [8] | inhibition [10] | residual activity [11] | residual activity [12] | residual activity [13] | residual activity [14] | residual activity [15] | residual activity [16] | residual activity [17] | also measured |
| --- | --- | --- | --- | --- | --- | --- | --- | --- | --- | --- | --- | --- | --- | --- | --- |
| Cc1ccc(-c2cnc([C@@]3(O)CC[C@H](C(=O)O)C(C)(C)C3)s2)cc1Nc1cccc(C(F)(F)F)n1 [MRL-SYKi-NC] | 100% | 82.6% | 100% | 100% | 100% | 100% | -5.83% | 61.3% | 100% | 100% | 100% | 48.8% | 77.1% | 100% | Ki [2]: 774 nM; pKi [2]: 6.11; Kd (LIM domain kinase 1): > 10000 nM (not active); inhibition [7]: -6.43%; Ki [9]: 1060 nM; inhibition [18]: 6.66% |
| Cc1cc(Nc2nccc(C)n2)cc(-c2cnc([C@@]3(O)CC[C@H](C(=O)O)C(C)(C)C3)s2)c1 [MRL-SYKi] | 64.4% | 90.3% | 81.2% | 89% | 100% | 90.5% | 30.6% | 79.6% | 77.2% | 75.6% | 95.5% | 100% | 94.8% | 100% | Ki [19]: 7710 nM; IC50 [20]: 24 nM (active); IC50 [21]: 205 nM (not active); IC50 [22]: 120 nM (not active); IC50 [23]: 185 nM (not active); inhibition [24]: 11.4%; IC50 [25]: 100 nM (not active); IC50 [26]: 232 nM (not active); Kd [27]: 1.8 nM (active); IC50 [28]: 105 nM (not active); IC50 [29]: 242 nM (not active) |
